{"source": "paper PMC8799717", "about": "“Pharmacological targeting PIKfyve and tubulin as an effective treatment strategy for double-hit lymphoma” (Cell Death Discovery, 2022)", "experiment_in_all_cases": "biochemical", "set-up_in_all_cases": "KINOMEscan active-site-directed competition binding panel, 468 kinases, percent of DMSO control at 1 uM", "details_in_all_cases": "KINOMEscan binding, percent of DMSO control; read-out: Ctrl%", "key": {"[1]": {"biological_target": "KIT(D816V) (Homo sapiens, UniProt P10721, D816V)", "sequence (P10721 whole entry D816V)": "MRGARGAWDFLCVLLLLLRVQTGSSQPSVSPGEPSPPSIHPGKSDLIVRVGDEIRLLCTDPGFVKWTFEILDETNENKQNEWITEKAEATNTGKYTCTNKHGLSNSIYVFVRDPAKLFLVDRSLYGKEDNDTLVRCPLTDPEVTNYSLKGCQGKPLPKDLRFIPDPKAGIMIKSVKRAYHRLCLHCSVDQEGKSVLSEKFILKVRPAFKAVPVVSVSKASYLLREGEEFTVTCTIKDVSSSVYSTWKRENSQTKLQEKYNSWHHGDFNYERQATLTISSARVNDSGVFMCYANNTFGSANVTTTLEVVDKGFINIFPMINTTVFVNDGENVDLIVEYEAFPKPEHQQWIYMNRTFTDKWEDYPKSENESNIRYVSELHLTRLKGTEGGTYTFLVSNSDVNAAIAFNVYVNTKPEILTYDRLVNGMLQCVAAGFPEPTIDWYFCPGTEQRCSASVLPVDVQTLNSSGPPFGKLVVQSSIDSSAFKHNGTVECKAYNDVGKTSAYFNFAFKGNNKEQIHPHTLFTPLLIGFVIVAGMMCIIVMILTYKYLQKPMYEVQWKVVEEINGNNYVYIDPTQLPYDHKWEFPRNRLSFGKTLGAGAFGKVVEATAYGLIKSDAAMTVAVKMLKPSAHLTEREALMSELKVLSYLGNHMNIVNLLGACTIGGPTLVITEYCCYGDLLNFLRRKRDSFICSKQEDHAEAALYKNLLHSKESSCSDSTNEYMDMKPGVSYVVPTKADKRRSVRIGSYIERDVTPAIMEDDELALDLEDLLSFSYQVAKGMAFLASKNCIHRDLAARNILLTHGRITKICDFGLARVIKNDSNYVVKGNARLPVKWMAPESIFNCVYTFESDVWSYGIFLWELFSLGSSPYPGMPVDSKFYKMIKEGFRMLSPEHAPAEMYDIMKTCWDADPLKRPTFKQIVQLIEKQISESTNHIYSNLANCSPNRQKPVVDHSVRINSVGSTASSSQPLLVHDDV"}, "[2]": {"biological_target": "T1, p38-delta (Homo sapiens, UniProt O15264)", "T1 construct": "gene MAPK13"}, "[3]": {"biological_target": "ALK(C1156Y) (Homo sapiens, UniProt Q9UM73, C1156Y)"}, "[4]": {"biological_target": "ULK2 (Homo sapiens, UniProt Q8IYT8)"}, "[5]": {"biological_target": "MYLK (Homo sapiens, UniProt Q15746)"}, "[6]": {"biological_target": "CDK2 (Homo sapiens, UniProt P24941)"}, "[7]": {"biological_target": "BMPR1B (Homo sapiens, UniProt O00238)"}, "[8]": {"biological_target": "KIT(V559D) (Homo sapiens, UniProt P10721, V559D)", "sequence (P10721 whole entry V559D)": "as the sequence (P10721 whole entry D816V) above, with V559D, V816D counted along it"}, "[9]": {"biological_target": "PIP5K1A (Homo sapiens, UniProt Q99755)"}, "[10]": {"biological_target": "CSF1R-autoinhibited (Homo sapiens, UniProt P07333)"}, "[11]": {"biological_target": "TTK (Homo sapiens, UniProt P33981)"}, "[12]": {"biological_target": "CDK4 (Homo sapiens, UniProt P11802)"}, "[13]": {"biological_target": "T2, RPS6KA5(Kin.Dom.2-C-terminal) (Homo sapiens, UniProt O75582)", "T2 construct": "Kin.Dom.2-C-terminal"}, "[14]": {"biological_target": "CSNK1G1 (Homo sapiens, UniProt Q9HCP0)"}, "[15]": {"biological_target": "MET (Homo sapiens, UniProt P08581)"}, "[16]": {"biological_target": "ABL2 (Homo sapiens, UniProt P42684)"}, "[17]": {"biological_target": "T3, ASK1 (Homo sapiens, UniProt Q99683)", "T3 construct": "gene MAP3K5", "T3 sequence (Q99683 whole entry)": "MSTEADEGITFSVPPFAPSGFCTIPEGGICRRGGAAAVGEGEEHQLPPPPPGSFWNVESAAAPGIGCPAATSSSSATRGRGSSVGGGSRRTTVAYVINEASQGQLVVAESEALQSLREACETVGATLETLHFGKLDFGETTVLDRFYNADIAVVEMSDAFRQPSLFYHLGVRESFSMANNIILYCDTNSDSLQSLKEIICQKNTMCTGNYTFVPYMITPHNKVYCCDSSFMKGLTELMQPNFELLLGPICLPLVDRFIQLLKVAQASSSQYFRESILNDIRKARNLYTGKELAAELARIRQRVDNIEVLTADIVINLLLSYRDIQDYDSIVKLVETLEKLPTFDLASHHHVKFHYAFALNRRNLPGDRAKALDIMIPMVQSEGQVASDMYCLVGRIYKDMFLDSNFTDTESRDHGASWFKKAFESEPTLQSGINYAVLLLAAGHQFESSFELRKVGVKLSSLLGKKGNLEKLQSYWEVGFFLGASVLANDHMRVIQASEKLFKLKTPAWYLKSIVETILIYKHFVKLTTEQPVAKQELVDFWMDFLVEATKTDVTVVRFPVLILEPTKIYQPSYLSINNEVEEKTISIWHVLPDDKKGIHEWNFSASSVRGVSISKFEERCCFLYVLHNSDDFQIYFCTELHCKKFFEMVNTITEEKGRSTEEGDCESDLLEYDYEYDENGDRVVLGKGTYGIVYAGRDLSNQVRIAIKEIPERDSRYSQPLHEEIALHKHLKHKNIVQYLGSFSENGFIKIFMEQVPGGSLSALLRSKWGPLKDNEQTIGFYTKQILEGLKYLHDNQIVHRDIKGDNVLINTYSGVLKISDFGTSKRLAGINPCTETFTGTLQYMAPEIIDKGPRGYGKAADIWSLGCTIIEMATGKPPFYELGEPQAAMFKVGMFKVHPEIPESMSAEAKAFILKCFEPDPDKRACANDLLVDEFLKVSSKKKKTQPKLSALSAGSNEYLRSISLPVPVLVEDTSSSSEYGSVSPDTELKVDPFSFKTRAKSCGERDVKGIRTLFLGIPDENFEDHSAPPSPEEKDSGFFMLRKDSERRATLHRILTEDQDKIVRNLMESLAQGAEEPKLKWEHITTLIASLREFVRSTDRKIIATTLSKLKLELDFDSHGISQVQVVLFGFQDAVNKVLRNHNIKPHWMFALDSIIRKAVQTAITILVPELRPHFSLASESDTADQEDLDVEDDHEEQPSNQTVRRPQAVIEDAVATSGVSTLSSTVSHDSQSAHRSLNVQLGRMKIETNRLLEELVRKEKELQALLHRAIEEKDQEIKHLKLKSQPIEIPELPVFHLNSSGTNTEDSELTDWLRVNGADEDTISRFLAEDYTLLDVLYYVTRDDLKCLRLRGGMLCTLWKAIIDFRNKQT"}, "[18]": {"biological_target": "PIK3CG (Homo sapiens, UniProt P48736)"}, "[19]": {"biological_target": "CSNK2A1 (Homo sapiens, UniProt P68400)"}, "[20]": {"biological_target": "TAOK2 (Homo sapiens, UniProt Q9UL54)", "sequence (Q9UL54 whole entry)": "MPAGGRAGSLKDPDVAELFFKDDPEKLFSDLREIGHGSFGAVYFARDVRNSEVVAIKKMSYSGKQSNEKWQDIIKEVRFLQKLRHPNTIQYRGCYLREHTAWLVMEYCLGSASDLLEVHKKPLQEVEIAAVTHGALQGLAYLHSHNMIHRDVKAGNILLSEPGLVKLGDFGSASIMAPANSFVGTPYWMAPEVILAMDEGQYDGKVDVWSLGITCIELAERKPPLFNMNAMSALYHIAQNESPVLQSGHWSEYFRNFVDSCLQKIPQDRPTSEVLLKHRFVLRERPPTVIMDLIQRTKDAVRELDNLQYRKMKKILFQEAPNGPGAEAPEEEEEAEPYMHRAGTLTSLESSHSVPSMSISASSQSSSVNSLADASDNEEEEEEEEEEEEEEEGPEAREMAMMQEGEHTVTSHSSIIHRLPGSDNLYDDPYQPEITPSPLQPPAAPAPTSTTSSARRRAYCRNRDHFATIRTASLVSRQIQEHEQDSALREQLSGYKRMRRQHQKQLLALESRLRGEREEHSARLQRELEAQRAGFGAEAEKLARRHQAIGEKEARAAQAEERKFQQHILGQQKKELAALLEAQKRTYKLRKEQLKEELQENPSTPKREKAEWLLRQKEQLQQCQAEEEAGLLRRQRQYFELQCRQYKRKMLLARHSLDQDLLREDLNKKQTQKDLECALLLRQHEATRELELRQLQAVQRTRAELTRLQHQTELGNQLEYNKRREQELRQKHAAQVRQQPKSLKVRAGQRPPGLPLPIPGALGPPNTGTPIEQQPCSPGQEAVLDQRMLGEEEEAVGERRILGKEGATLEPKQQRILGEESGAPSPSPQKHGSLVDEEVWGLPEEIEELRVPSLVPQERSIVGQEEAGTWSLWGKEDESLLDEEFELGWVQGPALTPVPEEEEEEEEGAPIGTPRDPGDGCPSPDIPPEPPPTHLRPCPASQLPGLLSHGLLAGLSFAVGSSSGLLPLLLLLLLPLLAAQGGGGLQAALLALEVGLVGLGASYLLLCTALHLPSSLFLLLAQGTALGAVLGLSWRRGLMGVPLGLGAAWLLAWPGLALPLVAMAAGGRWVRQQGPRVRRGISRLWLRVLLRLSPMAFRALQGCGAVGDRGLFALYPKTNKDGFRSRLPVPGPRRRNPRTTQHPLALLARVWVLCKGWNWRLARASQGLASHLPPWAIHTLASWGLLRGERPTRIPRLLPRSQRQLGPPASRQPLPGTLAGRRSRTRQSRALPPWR"}, "[21]": {"biological_target": "NEK7 (Homo sapiens, UniProt Q8TDX7)"}, "[22]": {"biological_target": "T4, JAK1(JH1domain-catalytic) (Homo sapiens, UniProt P23458)", "T4 construct": "JH1domain-catalytic"}, "[23]": {"biological_target": "MYO3B (Homo sapiens, UniProt Q8WXR4)", "sequence (Q8WXR4 whole entry)": "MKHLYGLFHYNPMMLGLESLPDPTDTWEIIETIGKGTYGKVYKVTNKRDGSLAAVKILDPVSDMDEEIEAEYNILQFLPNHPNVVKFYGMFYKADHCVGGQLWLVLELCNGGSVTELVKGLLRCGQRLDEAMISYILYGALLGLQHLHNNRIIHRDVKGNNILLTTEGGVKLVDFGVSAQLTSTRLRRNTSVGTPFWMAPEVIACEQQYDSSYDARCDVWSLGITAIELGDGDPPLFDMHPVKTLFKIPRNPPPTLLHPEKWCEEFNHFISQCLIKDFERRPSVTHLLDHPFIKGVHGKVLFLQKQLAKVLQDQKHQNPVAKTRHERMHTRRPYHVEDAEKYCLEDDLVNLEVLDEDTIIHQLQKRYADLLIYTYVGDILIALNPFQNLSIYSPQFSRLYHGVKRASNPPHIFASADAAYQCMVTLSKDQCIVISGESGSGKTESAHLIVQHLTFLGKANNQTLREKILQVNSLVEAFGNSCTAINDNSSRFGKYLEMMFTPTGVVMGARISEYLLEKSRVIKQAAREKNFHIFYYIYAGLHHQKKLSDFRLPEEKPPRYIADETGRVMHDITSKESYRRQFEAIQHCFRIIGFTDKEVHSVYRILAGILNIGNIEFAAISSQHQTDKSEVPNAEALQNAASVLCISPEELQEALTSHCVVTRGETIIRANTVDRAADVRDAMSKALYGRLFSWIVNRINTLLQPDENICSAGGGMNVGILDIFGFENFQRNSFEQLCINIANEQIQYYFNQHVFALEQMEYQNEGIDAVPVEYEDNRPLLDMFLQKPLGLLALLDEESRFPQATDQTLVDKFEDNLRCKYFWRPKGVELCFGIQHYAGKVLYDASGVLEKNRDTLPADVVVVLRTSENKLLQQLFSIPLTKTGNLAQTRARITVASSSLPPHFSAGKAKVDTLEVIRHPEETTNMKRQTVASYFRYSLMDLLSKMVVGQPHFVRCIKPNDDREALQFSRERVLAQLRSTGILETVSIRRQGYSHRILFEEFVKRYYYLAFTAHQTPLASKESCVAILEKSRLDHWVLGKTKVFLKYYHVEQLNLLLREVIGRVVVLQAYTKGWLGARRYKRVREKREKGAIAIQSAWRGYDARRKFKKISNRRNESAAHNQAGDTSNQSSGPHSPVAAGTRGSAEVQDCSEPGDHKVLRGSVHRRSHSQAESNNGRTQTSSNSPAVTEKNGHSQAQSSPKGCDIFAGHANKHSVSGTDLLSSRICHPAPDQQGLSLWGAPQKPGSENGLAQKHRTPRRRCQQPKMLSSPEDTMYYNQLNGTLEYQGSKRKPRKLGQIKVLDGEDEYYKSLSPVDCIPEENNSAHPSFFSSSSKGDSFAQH"}, "[24]": {"biological_target": "T5, CDK4-cyclinD3 (Homo sapiens, UniProt P11802)", "T5 construct": "cyclinD3"}}}
{"smiles": "Cc1ccc(NC(=O)c2cccc(C(F)(F)F)c2)cc1Nc1cc(-c2cccnc2)nc2[nH]ccc12", "note": "[HZX-02-059]", "values": [{"measurement": "remaining binding at 1 µM", "setting": "[1]", "result": 93, "unit": "%"}, {"measurement": "remaining binding at 1 µM", "setting": "[2]", "result": 87, "unit": "%"}, {"measurement": "remaining binding at 1 µM", "setting": "[3]", "result": 99, "unit": "%"}, {"measurement": "remaining binding at 1 µM", "setting": "[4]", "result": 99, "unit": "%"}, {"measurement": "remaining binding at 1 µM", "setting": "[5]", "result": 100, "unit": "%"}, {"measurement": "remaining binding at 1 µM", "setting": "[6]", "result": 96, "unit": "%"}, {"measurement": "remaining binding at 1 µM", "setting": "[7]", "result": 91, "unit": "%"}, {"measurement": "remaining binding at 1 µM", "setting": "[8]", "result": 0.9, "unit": "%"}, {"measurement": "remaining binding at 1 µM", "setting": "[9]", "result": 79, "unit": "%"}, {"measurement": "remaining binding at 1 µM", "setting": "[10]", "result": 93, "unit": "%"}, {"measurement": "remaining binding at 1 µM", "setting": "[11]", "result": 99, "unit": "%"}, {"measurement": "remaining binding at 1 µM", "setting": "[12]", "result": 100, "unit": "%"}, {"measurement": "remaining binding at 1 µM", "setting": "[13]", "result": 99, "unit": "%"}, {"measurement": "remaining binding at 1 µM", "setting": "[14]", "result": 83, "unit": "%"}, {"measurement": "remaining binding at 1 µM", "setting": "[15]", "result": 94, "unit": "%"}, {"measurement": "remaining binding at 1 µM", "setting": "[16]", "result": 26, "unit": "%"}, {"measurement": "remaining binding at 1 µM", "setting": "[17]", "result": 93, "unit": "%"}, {"measurement": "remaining binding at 1 µM", "setting": "[18]", "result": 96, "unit": "%"}, {"measurement": "remaining binding at 1 µM", "setting": "[19]", "result": 81, "unit": "%"}, {"measurement": "remaining binding at 1 µM", "setting": "[20]", "result": 98, "unit": "%"}, {"measurement": "remaining binding at 1 µM", "setting": "[21]", "result": 73, "unit": "%"}, {"measurement": "remaining binding at 1 µM", "setting": "[22]", "result": 100, "unit": "%"}, {"measurement": "remaining binding at 1 µM", "setting": "[23]", "result": 97, "unit": "%"}, {"measurement": "remaining binding at 1 µM", "setting": "[24]", "result": 93, "unit": "%"}]}
